Experimental data reported in patent US20040253243A1, “Aptamer therapeutics useful in ocular pharmacotherapy” (priority 2003, published 2004).
Residue numbers refer to the chain shown, from its start. Like-named read-outs stand apart in the source and are kept apart here. Marks after values point to notes of the source that are not given here. {3T} = T cap written 3T / [3'T]; {NH2} = amine group; m = 2'-O-methyl; r = 2'-OH (RNA); f = 2'-fluoro

Tests used:
[1] = tested on: retinal pigmented epithelial (RPE) cells; assay: RPE cell migration with PDGF; type: cell-based; conditions: 100 ng/ml PDGF
From the text: The graphs presented in FIG. 15E and 15F show the increasing effect of PDGF concentration on RPE cell migration.

TGFβ2 = molecular target: T1, TGFβ2 (Homo sapiens, UniProt P61812); assay: Nitrocellulose-filter partitioning binding of 32P-labeled aptamer to TGFβ-2 protein; parameters: A synthetic polynucleotide encoding full length human TGFβ2 mature protein was cloned into pRSET E. coli expression vector; made in house
T1 sequence (P61812 303-414 limits assumed): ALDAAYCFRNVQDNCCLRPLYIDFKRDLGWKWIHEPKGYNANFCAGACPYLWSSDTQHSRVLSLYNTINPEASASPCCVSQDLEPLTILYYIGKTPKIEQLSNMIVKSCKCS
Experimental: (§1) Dissociation constants for the binding of aptamers to purified human or rodent TGFβ-2 protein were determined by nitrocellulose-filter partitioning using ^32P-labeled RNA. In vitro transcribed RNA was treated with calf-intestinal alkaline phophatase (New England Biolabs) to remove 5′-triphosphates, then radio-labeled by incubation with γ-^32P-ATP and T4 polynucleotide kinase (New England Biolabs). Unincorporated label was removed by gel-filtration, and the RNAs were further purified by polyacrylamide gel electrophoresis (PAGE). Purified ^32P-labeled aptamer in water was refolded just prior to use by heating for 3 min at 95° C., followed by a 10 minute room-temperature incubation in binding buffer (50 mM Hepes, pH 7.4, 1 mM MgCl2, 1 mM CaCl2, 3 mM KCl, 140 mM NaCl, 0.1 mg/ml BSA, 0.01 mg/ml tRNA). The binding reactions (100 μL) were initiated by the addition of aptamer (≦0.1 nM) to excess TGFβ-2 protein (0.2-100 nM), followed by 10-30 minute equilibration at room temperature.
Nitrocellulose-filter partitioning was performed on Minifold® I, 96-well Dot-Blot manifolds (Schleicher & Schuell). Protein-bound aptamer and residual free aptamer were captured, respectively, on pre-wetted Protran nitrocellulose (Schleicher & Schuell) and Hybond-P polyvinylidene difluoride (Amersham Biosciences) filters by vacuum aspiration, and quantified by PhosphorImager (Amersham Biosciences). The proportion of protein-bound aptamer at each TGFβ-2 concentration was plotted as the ratio of counts-per-minute on the Protran nitrocellulose filter (CPMNC) to the sum of CPM on the Protran and Hybond-P filters (CPMtotal). Estimates of dissociation constants (KD) were obtained from a fit of the concentration of TGFβ-2 (i.e., [TGFβ-2])-dependent data to a standard binding isotherm: CPMNC/CPMtotal=Cmax/(1+KD/[TGFβ2]total), where Cmax equals the maximum observed value of CPMNC/CPMtotal at saturating [TGFβ-2], likely reflecting the proportion of properly-folded aptamer that is competent to recognize TGFβ-2.

[2] = tested on: TGFβ2 in rabbit aqueous humor; assay: Aqueous humor challenge assay (MLEC proliferation); type: cell-based
Experimental: MLEC Assay. The mink lung epithelial cell proliferation assay is performed over two days. […]
(§2) On day 2:1) mix 20 μl BrdU with 2 ml 0.5% FBS media; 2) add 10 μl of BrdU mixture/well; 3) incubate cells at 37° C. in 5% CO2 for 3 hrs; 4) remove media and blot plates dry on paper towels; 5) add 200 μl/well FixDenat solution and incubate for 30 min at room temperature (RT); 6) remove FixDenat solution and blot plates dry on paper towels; 7) add 100 μl /well anti-BrdU POD solution and incubate for 90 min at RT; 8) remove anti-BrdU POD solution and blot plates dry on paper towels; 9) wash plates 3× with […] washing solution with 5 min RT incubations and blot plates dry on paper towels; 10) add 100 μl /well substrate solution and incubate for 3 min at RT in dark; and 11) read plates using PSP Luciferace 1 program on TopCount (Packard Bioscience Co., Downers Grove, Ill.).
MLECs were plated at 2,000 cells per well and incubated at 37° C. for 4 hours. […] Cell proliferation was measured using BrdU incorporation. […]

[3] = Pharmacokinetics via subconjunctival administration; type: in vivo, mice
Experimental: A pharmacokinetic study was performed to determine the pharmacokinetics of ARC81, ARC117 and ARC119, TGFβ2 aptamers having the sequences of SEQ ID NOs:4, 9 and 11, respectively), via subconjunctival administration in mice. These aptamers were formulated at a concentration of 10 mg/ml. Samples were collected at 0, 0.5, 1, 2, 6, 12, 24, 48 and 96 hours post-administration. FIGS. 21A, 21B and 21C show the aqueous humor and/or plasma concentration of each aptamer (in nM) through 50 hours post dose via subconjunctival administration.

human TGFβ2 [4] = molecular target: T2, human TGFβ2 (Homo sapiens, UniProt P61812); assay: MLEC proliferation assay (reversal of TGFβ2-mediated inhibition, BrdU); type: cell-based; conditions: for inhibition of the antiproliferative effects of TGFβ2: 50 pg/ml of TGFβ2, BrdU incorporation
T2 construct: two forms of mature TGFβ2 were generated, native and N-terminal his-tagged versions, in E. coli; made in house; host or cells: E. coli; added as soluble protein to MLEC
T2 sequence (P61812 303-414): T1 sequence (P61812 303-414 limits assumed)
Experimental: (§3) MLECs were plated at 2,000 cells per well and incubated at 37° C. for 4 hours. Aptamer and TGFβ2 were added at the indicated concentrations for 16 hours at 37° C. Cell proliferation was measured using BrdU incorporation. BrdU assay was performed as recommended by the manufacturer (Roche Diagnostics).
(§4) MLEC Assay. The mink lung epithelial cell proliferation assay is performed over two days. On day 1:1) media is aspirated off from Mink Lung Epithelial Cells (MLEC); 2) the MLEC are washed with 10 ml 1×PBS; 3) 3 ml Trypsin is added and Trypsinize for 3 min at 37° C.; 4) quench with 10 ml 0.5% FBS media; 5) spin at 1000 rpm for 3.30 min; 6) aspirate off supernatant; 7) resuspend pellet in 10 ml 0.5% FBS media; 8) Count 10 μl cell suspension; 9) adjust cell density to 80,000 cells/ml; 10) add 50 μl of cells/well to black bottomed 96-well plates (4000 cells/well); pipet up and down during plating process to avoid settling of cells and uneven plating; 11) incubate cells at 37° C. in 5% CO2 for 4 hrs to allow adherence of cells; 12) add 25 μl of aptamer (or media, or other test reagent, such as for example, an antibody), preferably the outer wells are not used for treated cells; 13) add 25 μl of TGFβ2 (typically 25 pg/ml); and 14) incubate cells at 37° C. in 5% CO2 overnight.
as §2

mouse (NTK) TGFβ2 = molecular target: T3, mouse (NTK) TGFβ2 (Homo sapiens, UniProt P61812, K396N/R362K/S361T); assay: Nitrocellulose-filter binding to mouse TGFβ2; conditions: FIG. 6C; read-out: binding affinity, mouse (NTK) TGFβ2
T3 construct: A synthetic polynucleotide encoding full length human TGFβ2 mature protein was cloned into pRSET E. coli expression vector; made in house
T3 sequence (P61812 303-414 S361T/R362K/K396N): T1 sequence (P61812 303-414 limits assumed) with S59T, R60K, K94N
Experimental: as §1
(§5) Nitrocellulose-filter partitioning was performed on Minifold® I, 96-well Dot-Blot manifolds (Schleicher & Schuell). Protein-bound aptamer and residual free aptamer were captured, respectively, on pre-wetted Protran nitrocellulose (Schleicher & Schuell) and Hybond-P polyvinylidene difluoride (Amersham Biosciences) filters by vacuum aspiration, and quantified by PhosphorImager (Amersham Biosciences). […]

human TGFβ2 [5] = assay: MLEC proliferation assay (reversal of TGFβ2-mediated inhibition, BrdU); type: cell-based; conditions: FIG. 6B
Experimental: as §3, §4, §2

[6] = tested on: N-terminal His tagged human TGFβ2; assay: Nitrocellulose-filter binding to His-tagged TGFβ2; conditions: FIG. 6C; read-out: binding affinity, N-terminal His tagged human TGFβ2
Experimental: A synthetic polynucleotide encoding full length human TGFβ2 mature protein was cloned into pRSET E. coli expression vector and transformed into BL21 (pLys) strain. The transformed cells were grown under conditions leading to TGFβ2 protein being expressed at high level and forming inclusion bodies. The inclusion bodies were purified and solubilized. The TGFβ2 was refolded and purified by S75 size exclusion chromatography (FIG. 4A). A His-tagged TGFβ2 was also generated by adding His6 plus 30 extra amino acids at the N terminus of TGFβ2. Mutations at positions 59 (S→T), 60 (R→K) and 94 (K→N), referred to herein as the S59T/R60K/K94N mutant, were introduced by site directed mutagenesis. Both the His-tagged and mutated TGFβ2 were expressed, refolded and purified using the same protocol as for wild type TGFβ2.
Dissociation constants for the binding of aptamers to purified human or rodent TGFβ-2 protein were determined by nitrocellulose-filter partitioning using ^32P-labeled RNA. […]
as §5

[7] = 32P-labeled aptamer, nitrocellulose-filter partitioning, fit to Equation 1, read-out: Kd
[8] = Aq Humour, subconjunctival, 1 mg/eye bilaterally
[9] = PLASMA, subconjunctival, 1 mg/eye bilaterally
[10] = after subconjunctival administration

5′-[PEG40K]-NH2-dCdAdGfCmGfUdAfCmG-PEG-dCdGTdAdCdCmGdATfUfCmA-PEG-TdGdAdAdGfCfUmG-3T-3′ [ARC128, reference compound]
blocking of RPE cell migration [1]: has no activity

5′-NH2-mGmGmGmGfUfUAfUfUmAfCmAmGmAmGfUfCfUGfUAfUAmGfCfUmGfUmAfCfCfC-3T-3′ (GGGGUUAUUACAGAGUCUGUAUAGCUGUACCC; sugars from the 5' end mmmmffrffmfmmmmfffrfrfrmffmfmfff, 5' {NH2}, 3' {3T}, backbone not given here) [ARC81]
Kd (TGFβ2; [7]): 5.1 nM
rescue of rabbit aqueous humor-mediated inhibition of MLEC proliferation ([2]; 1.5% rabbit aqueous humor): rescued rabbit aqueous humor-mediated inhibition of MLEC proliferation in a dose dependent manner
inhibition of antiproliferative effects of rabbit aqueous humor ([2]; low concentrations of rabbit aqueous humor (e.g., <10%), 1000 nM ARC81): inhibited the antiproliferative effects of low concentrations of rabbit aqueous humor
AUC (0-t) [3, 8]: 36.0 nM·h
Cmax [3, 8]: 5.19 nM
MRT [3, 8]: 6.03* h
TLAST [3, 8]: 12 h
tmax [3, 8]: 6 h
AUC (0-t) [3, 9]: 29.8 nM·h
Cmax [3, 9]: 6.44 nM
MRT [3, 9]: 3.13 h
TLAST [3, 9]: 12 h
Vd [3, 9]: 21079 mL
t1/2 [3, 9]: 2.42 h
tmax [3, 9]: 1 h
detection in the aqueous humor [3, 10]: detected in the aqueous humor
time to enter systemic circulation [3, 10]: less than 0.5 hour
inhibition of the antiproliferative effects of TGFβ2 (human TGFβ2 [4]): inhibit the antiproliferative effects of 50 pg/ml of TGFβ2

5′-GGAGGfUfUAfUfUAfCAGAGfUfCfUGfUAfUAGfCfUGfUAfCfUfCfC-3T-3′ (GGAGGUUAUUACAGAGUCUGUAUAGCUGUACUCC; 2'-fluoro at CU, RNA at AG, 3' {3T}, backbone not given here) [ARC77]
Kd (TGFβ2; [7]): 3.6 nM
Kd (TGFβ2; FIG. 6C, read-out: binding affinity, human wild type (WT) TGFβ2): 2.5 ± 0.3 nM
Kd (TGFβ2; read-out: KD): 1 nM
Kd (mouse (NTK) TGFβ2): 80 ± 5 nM
potency against human versus rodent form of TGFβ2 (human TGFβ2 [5]): more potent against the human form of TGFβ2 than the rodent version
inhibition of the antiproliferative effects of TGFβ2 (human TGFβ2 [4]): inhibit the antiproliferative effects of 50 pg/ml of TGFβ2
IC50 (human TGFβ2 [4]; read-out: cell IC50): 10 nM
Kd [6]: ≥ 500 nM
